Read-outs that look alike come from different tables or passages of the source.
Experiments:
[1] = assay type: physicochemical
Procedure: Aim: to study whether the encapsulated retinol according to the invention supported UV irradiation and to compare with the non-encapsulated free retinol (solubilized in soybean oil).
Protocol: two samples, one containing free retinol and the other encapsulated retinol, were irradiated for 1 hour at about 40cm from the bulb of the solar lamp.
Retinol assay: by HPLC (UV detection at 325nm), the samples having been solubilized and diluted in isopropyl alcohol and the quantification having been carried out using a standard curve ranging from 2 to 150 ppm of retinol.

physchem = assay type: physicochemical
Text: The Franz diffusion cell is the device most used to examine the release profiles of an active ingredient encapsulated in the capsules according to the invention. […] The product to be tested is placed in the upper chamber while the lower chamber collects the recipient fluid which has passed through the membrane. The rate and mechanism of release can be obtained by mathematical modelling. The rate can be calculated using the following first-order equation: […] And the release mechanism can be obtained using the Korsmeyer-Peppas model equation: Mt/M∞ = […] [formula] In which: • t is the release time • Mt is the quantity of released active at t time • M∞ is the total quantity of released active • Mt/M∞ being the fraction of released active at t time; • k is a kinetic constant, a measure of the release rate; and • n the diffusional exponent which gives an indication of the release mechanism of the active and takes on different values depending on the geometry of the release device. […] Selected membrane: […] Eight Franz cells containing the release medium and the membrane were prepared and placed in a temperature-controlled water bath of 32°C. […] The amount added to the membrane was 20% of the saturation concentration to ensure flow conditions. Samples were taken at selected intervals of 0.5 to 76 h with replacement of fresh medium. All samples collected were analysed for retinol content by HPLC on the day of the experiment. […] The mean of the four cells in both cases was plotted against time and used to apply the mathematical models. […] The release mechanism was obtained by the Korsmeyer-Peppas equation.

[2] = Stability study on storage (retinol content by HPLC, colour, pH, particle size); assay type: physicochemical
Procedure: Samples were diluted in isopropanol. […] A calibration curve was performed. For an accelerated stability study, suspension samples according to the invention were stored for 365 days at room temperature (RT), 180 days at 40°C, 90 days at 5°C and 60 days at 50°C. The long-term stability study was evaluated at RT. Samples were analysed for characterization parameters at test times 0, 7, 14, 21, 30, 60, and 90, 180 and 365 days, depending on each storage condition. At each analysis time, a new bottle was opened for the first time. To assess the impact of product handling during stability, an additional bottle of each sample was stored at RT. This same bottle was opened and handled under an air atmosphere at each analysis time (7, 14, 21, 30, 60 and 90 days for all samples for RT) and the results were compared to the cases of the bottles newly opened for each analysis. All samples were handled without direct contact with light and under normal air conditions. No inert gas was used either to fill the bottles or to handle any sample.

## CC1=C(/C=C/C(C)=C/C=C/C(C)=C/CO)C(C)(C)CCC1 [Free retinol, retinol]
[1]; After 1h of irradiation, about 40cm from solar lamp
  Actual content of retinol (in weight %): 5.72 +/- 0.07 weight %
[1]; Control (not irradiated)
  Actual content of retinol (in weight %): 10.49 +/- 0.34 weight %
physchem
  retinol degradation peaks in the chromatograms of the release samples: degradation peaks from 10h
physchem; 3% tween 80 in water
  half-life: 2.03 h
physchem; Franz cell, PVDF 0.1 µm membrane, 3% Tween 80 / 97% water, 32°C, first-order model
  release rate: 0.00089 min⁻¹
[2]; storage 5°C, 0 days, suspension: new bottle for each test
  Retinol content in w/w %: 3.11 w/w %
[2]; storage 5°C, 7 days, suspension: new bottle for each test
  Retinol content in w/w %: 3.14 w/w %
[2]; storage 5°C, 14 days
  Retinol content in w/w %: 2.77 w/w %
[2]; storage 5°C, 21 days
  Retinol content in w/w %: 0.42 w/w %
[2]; storage 5°C, 30 days, suspension: new bottle for each test
  Retinol content in w/w %: 0.0 w/w %
[2]; storage 40°C, 0 days, suspension: new bottle for each test
  Retinol content in w/w %: 3.11 w/w %
[2]; storage 40°C, 7 days, suspension: new bottle for each test
  Retinol content in w/w %: 2.79 w/w %
[2]; storage 40°C, 14 days
  Retinol content in w/w %: 0.89 w/w %
[2]; storage 40°C, 21 days
  Retinol content in w/w %: 0.0 w/w %
[2]; storage 40°C, 30 days, suspension: new bottle for each test
  Retinol content in w/w %: 0.0 w/w %
[2]; storage 50°C, 0 days, suspension: new bottle for each test
  Retinol content in w/w %: 3.11 w/w %
[2]; storage 50°C, 7 days, suspension: new bottle for each test
  Retinol content in w/w %: 2.51 w/w %
[2]; storage 50°C, 14 days, suspension: new bottle for each test
  Retinol content in w/w %: 0.10 w/w %
[2]; storage 50°C, 21 days, suspension: new bottle for each test
  Retinol content in w/w %: 0.0 w/w %
[2]; storage 50°C, 30 days, suspension: new bottle for each test
  Retinol content in w/w %: 0.0 w/w %
[2]; storage RT, 0 days, suspension: new bottle for each test
  Retinol content in w/w %: 3.11 w/w %
[2]; storage RT, 7 days, suspension: new bottle for each test
  Retinol content in w/w %: 2.76 w/w %
[2]; storage RT, 14 days, suspension: new bottle for each test
  Retinol content in w/w %: 2.40 w/w %
[2]; storage RT, 21 days, suspension: new bottle for each test
  Retinol content in w/w %: 0.23 w/w %
[2]; storage RT, 30 days, suspension: new bottle for each test
  Retinol content in w/w %: 0.25 w/w %

— EP4489718B1, “METHOD FOR ENCAPSULATING A HYDROPHOBIC COMPOUND, SUSPENSION OF STRUCTURED LIPID PARTICLES ACCORDING TO THIS METHOD, AND USES OF SAID SUSPENSION” (SEDERMA, priority 2022, dated 2023)
